Data taken from patent US20210198277A1, “AMINE-SUBSTITUTED ARYL OR HETEROARYL COMPOUNDS” (Epizyme, Inc., priority 2016, published 2021).

Tests used:
human EHMT2 913-1193 = target: T1, human EHMT2 913-1193 (Homo sapiens, UniProt Q96KQ7); assay: EHMT2 enzyme assay on histone peptide substrate (EHMT2 PEP); type: biochemical; details: Table III; read-out: EHMT2 PEP (IC50 μM)
T1 construct: recombinant purified human EHMT2 913-1193, Viva; purchased Viva
T1 sequence (Q96KQ7 913-1193): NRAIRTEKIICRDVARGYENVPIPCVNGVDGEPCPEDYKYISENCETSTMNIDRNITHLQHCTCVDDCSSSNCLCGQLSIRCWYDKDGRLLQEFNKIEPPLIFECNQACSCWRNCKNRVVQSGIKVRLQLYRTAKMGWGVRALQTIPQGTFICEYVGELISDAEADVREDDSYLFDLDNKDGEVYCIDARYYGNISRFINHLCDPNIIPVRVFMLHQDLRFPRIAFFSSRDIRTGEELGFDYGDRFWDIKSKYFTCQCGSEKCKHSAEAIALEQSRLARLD
In short: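 Compounds (10-point, 3-fold dilutions, top 50 μM final, 2% DMSO) preincubated 30 min with 0.031 nM EHMT2 in 20 mM Bicine pH 7.5, 0.002% Tween 20, 0.005% gelatin, 1 mM TCEP. Biotinylated histone peptide methylated with ^3H-SAM 60 min at room temperature. Quenched with unlabeled SAM; product captured on streptavidin Flashplate, scintillation counted.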

EHMT1 = target: T2, EHMT1 (Homo sapiens, UniProt Q9H9B1); assay: EHMT1 enzyme assay on peptide substrate (EHMT1 PEP); type: biochemical; details: Table III; read-out: EHMT1 PEP (IC50 μM)
T2 sequence (Q9H9B1 1-1298): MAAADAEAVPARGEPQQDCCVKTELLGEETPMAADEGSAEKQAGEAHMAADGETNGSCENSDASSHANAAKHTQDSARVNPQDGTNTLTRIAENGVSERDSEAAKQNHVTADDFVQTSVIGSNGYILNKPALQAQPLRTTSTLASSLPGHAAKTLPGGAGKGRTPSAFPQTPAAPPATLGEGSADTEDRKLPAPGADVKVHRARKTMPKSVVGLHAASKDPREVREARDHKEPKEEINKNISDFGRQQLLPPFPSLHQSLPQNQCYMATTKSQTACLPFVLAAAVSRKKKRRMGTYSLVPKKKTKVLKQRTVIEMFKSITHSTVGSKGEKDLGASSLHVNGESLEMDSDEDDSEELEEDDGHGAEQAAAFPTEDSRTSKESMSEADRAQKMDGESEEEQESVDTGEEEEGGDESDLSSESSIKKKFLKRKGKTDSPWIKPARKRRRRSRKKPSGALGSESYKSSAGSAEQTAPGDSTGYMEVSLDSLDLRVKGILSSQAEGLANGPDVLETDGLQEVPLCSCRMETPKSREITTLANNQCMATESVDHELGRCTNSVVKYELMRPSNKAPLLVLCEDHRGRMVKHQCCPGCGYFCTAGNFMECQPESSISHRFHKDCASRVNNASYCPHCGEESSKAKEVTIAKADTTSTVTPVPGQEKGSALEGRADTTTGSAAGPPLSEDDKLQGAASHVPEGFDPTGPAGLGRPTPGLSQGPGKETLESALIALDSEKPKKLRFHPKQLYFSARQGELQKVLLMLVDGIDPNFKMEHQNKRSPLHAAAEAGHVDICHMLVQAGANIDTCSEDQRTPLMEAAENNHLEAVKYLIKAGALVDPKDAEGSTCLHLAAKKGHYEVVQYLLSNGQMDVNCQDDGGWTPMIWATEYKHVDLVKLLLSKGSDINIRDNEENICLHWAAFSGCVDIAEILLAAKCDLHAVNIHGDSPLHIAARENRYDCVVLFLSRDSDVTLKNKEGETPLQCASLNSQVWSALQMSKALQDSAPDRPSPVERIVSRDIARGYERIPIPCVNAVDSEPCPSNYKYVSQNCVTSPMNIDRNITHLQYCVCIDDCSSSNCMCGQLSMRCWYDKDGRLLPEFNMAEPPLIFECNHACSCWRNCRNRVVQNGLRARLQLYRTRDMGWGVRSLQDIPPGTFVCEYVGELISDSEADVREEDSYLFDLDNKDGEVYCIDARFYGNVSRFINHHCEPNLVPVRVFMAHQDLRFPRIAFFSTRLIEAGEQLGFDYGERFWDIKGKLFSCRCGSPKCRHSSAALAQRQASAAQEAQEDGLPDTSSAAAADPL

Compound	IC50 (human EHMT2 913-1193) [µM]	IC50 (EHMT1) [µM]
CNc1cc(C)nc(Nc2cc(F)c(OC)c(OCCCN3CCCC3)c2)n1 [Compound 301, N2-(3-fluoro-4-methoxy-5-(3-(pyrrolidin-1-yl)propoxy)phenyl)-N4,6-dimethylpyrimidine-2,4-diamine]	> 10	> 10
CNc1cc(C)nc(Nc2cc(OCCCN3CCCC3)c(OC)cn2)n1 [Compound 303, N^2-(5-methoxy-4-(3-(pyrrolidin-1-yl)propoxy)pyridin-2-yl)-N^4,6-dimethylpyrimidine-2,4-diamine]	< 0.1	0.1 to 1
CNc1ccnc(Nc2cc(OCCCN3CCCC3)c(OC)cn2)c1 [Compound 305, N^2-(5-methoxy-4-(3-(pyrrolidin-1-yl)propoxy)pyridin-2-yl)-N^4-methylpyridine-2,4-diamine]	< 0.1	< 0.1
CNc1nc(C)cc(Nc2cc(OCCCN3CCCC3)c(OC)cn2)n1 [Compound 306, N^4-(5-methoxy-4-(3-(pyrrolidin-1-yl)propoxy)pyridin-2-yl)-N^2,6-dimethylpyrimidine-2,4-diamine]	1 to 10	> 10
CNc1cc(Nc2cc(OCCCN3CCCC3)c(OC)cn2)cc(C)n1 [Compound 308, N^4-(5-methoxy-4-(3-(pyrrolidin-1-yl)propoxy)pyridin-2-yl)-N^2,6-dimethylpyridine-2,4-diamine]	0.1 to 1	0.1 to 1
CNc1cc(Nc2cc(OCCCN3CCCC3)c(OC)cn2)nc(C)c1F [Compound 309, 5-fluoro-N^2-(5-methoxy-4-(3-(pyrrolidin-1-yl)propoxy)pyridin-2-yl)-N^4,6-dimethylpyridine-2,4-diamine]	< 0.1	< 0.1
CNc1cc(C)nc(Nc2ccc(OC)c(OCCOC)c2)n1 [Compound 311, N^2-(4-methoxy-3-(2-methoxyethoxy)phenyl)-N^4,6-dimethylpyrimidine-2,4-diamine]	> 10	> 10
CNc1cc(C)nc(Nc2ccc(C3CC3)c(OCCCN3CCCC3)c2)n1 [Compound 313, N^2-(4-cyclopropyl-3-(3-(pyrrolidin-1-yl)propoxy)phenyl)-N^4,6-dimethylpyrimidine-2,4-diamine]	0.1 to 1	0.1 to 1
CNc1cc(C)nc(Nc2ccc(OC)c(O[C@H]3C[C@@H](CN(C)C)C3)c2)n1 [Compound 318, N^2-(3-((1s,3s)-3-((dimethylamino)methyl)cyclobutoxy)-4-methoxyphenyl)-N^4,6-dimethylpyrimidine-2,4-diamine]	> 10	> 10

Now from value to molecule:

IC50 (human EHMT2 913-1193) [µM]	IC50 (EHMT1) [µM]	Compound
1 to 10	1 to 10	CNc1cc(C)nc(Nc2cc(OCCCN3CCCC3)c(OC)cc2F)n1 [Compound 302, N^2-(2-fluoro-4-methoxy-5-(3-(pyrrolidin-1-yl)propoxy)phenyl)-N^4,6-dimethylpyrimidine-2,4-diamine]
< 0.1	< 0.1	COc1cnc(Nc2nccc3[nH]ccc23)cc1OCCCN1CCCC1 [Compound 304]
< 0.1	< 0.1	CNc1cc(C)nc(Nc2cc(OCCCN3CCCC3)c(OC)cn2)c1 [Compound 307, N^2-(5-methoxy-4-(3-(pyrrolidin-1-yl)propoxy)pyridin-2-yl)-N^4,6-dimethylpyridine-2,4-diamine]
0.1 to 1	0.1 to 1	COc1cnc(Nc2nc(C)cc3[nH]ccc23)cc1OCCCN1CCCC1 [Compound 310]
> 10	> 10	CNc1cc(C)nc(Nc2ccc(OC)c(OCCCOC)c2)n1 [Compound 312, N^2-(4-methoxy-3-(3-methoxypropoxy)phenyl)-N^4,6-dimethylpyrimidine-2,4-diamine]
0.1 to 1	0.1 to 1	CNc1ccnc(Nc2ccc(C3CC3)c(OCCCN3CCCC3)c2)n1 [Compound 314, N^2-(4-cyclopropyl-3-(3-(pyrrolidin-1-yl)propoxy)phenyl)-N^4-methylpyrimidine-2,4-diamine]
1 to 10	0.1 to 1	CNc1cc(C)nc(Nc2ccc(OC)c(OC[C@H]3C[C@@H](N(C)C)C3)c2)n1 [Compound 316]
